We go through one molecule from patent US10369123B2, “Perk activator for the treatment of neurodegenerative diseases” (DEUTSCHES ZENTRUM FÜR NEURODEGENERATIVE ERKRANKUNGEN E.V. …, priority 2014, dated 2019).

The assay concerns 3R/4R MAPT mRNA, splicing factor SRSF2. Put plainly: Quantitative PCR of MAPT isoforms and splicing factors, annonacin model. In kind it is cell-based, human. The conditions noted are these: annonacin + PERK activator. As to the method: Nunc™ Nunclon™ Delta 6-well (for protein and mRNA) or 48-well (for cell assays) plates (Thermo Fisher Scientific, Waltham, Mass., USA) were coated with 100 μg/ml poly-L-lysine (Sigma-Aldrich, St. Louis, Mo., USA) and 5 μg/ml fibronectin (Sigma-Aldrich). LUHMES (Lund Human Mesencephalic) cells, derived from human embryonic ventral mesencephalic cells by conditional immortalization (Tet-off v-myc over-expression) were seeded out in a concentration of 130,000 cells/cm^2 to achieve a confluence of 50%. They were then differentiated for 8 days in a medium of DMEM/F12 (Sigma-Aldrich), 1 μg/ml tetracycline, […] and 490 μg/ml dbcAMP into post-mitotic neurons with a dopaminergic phenotype (Lotharius et al. 2005).
For all experiments with annonacin, the medium was replaced during the intoxication period with new medium containing glucose levels reduced to 250 μM, i.e. the physiological concentration in the human brain.
RNA from human tissue samples was extracted by grinding the tissue in liquid nitrogen to a powder and then dissolving it in the RA1 buffer supplied as part of the NucleoSpin® RNA (Macherey Nagel) RNA extraction kit+1% (v/v) 2-mercaptoethanol (Sigma-Aldrich). RNA from cells was extracted by scraping the cells from the culture plate with RA1 buffer+1% (v/v) 2-mercaptoethanol. The remaining extraction procedure was according to the manufacturer's instructions for the NucleoSpin® RNA kit. RNA concentrations were determined using the NanoDrop 2000c Spectrophotometer. The RNA was then transcribed into cDNA with the iScript™ cDNA Synthesis Kit (BioRad) using the manufacturer's instructions. Real-Time PCR was performed on the Applied Biosystems® StepOnePlus™ (Life Technologies) system using TagMan® Universal Master Mix II and TaqMan® primers against total MAPT, MAPT 3R, MAPT 4R, EIF2A, EI2AK3 and ATF4. POL2A and PSCM1 served as reference targets as they were determined to be the most stably expressed across experimental conditions. The results were analyzed using the StepOne Plus software (Life Technologies) and Qbase software (Biogazelle) and were then graphically and statistically analyzed with Prism 6 (GraphPad Software). Absolute quantification was performed by creating a standard curve with plasmids containing either the 2N3R or the 2N4R spliced variant of MAPT (see Table 2). The absolute quantity was computed by deriving the relationship between CT values and absolute quantity with the StepOne Plus software.

Turning to `CCN(CC)CCC(=O)N1N=C(c2c(-c3ccccc3)c3cc(Br)ccc3[nH]c2=O)CC1c1ccc(Br)cc1` (centres unmarked) [CCT020312, 6-bromo-3-[5-(4-bromo-phenyl)-1-(3-diethylamino-propionyl)-4,5-dihydro-1H-pyrazol-3-yl]-4-phenyl-1H-quinolin-2-one], the “annonacin-induced increase of splicing factor SRSF2” value was “significantly reduced”. The “4R-tau mRNA amount” value (48 h) is on record as “reduced”.
